Assay results reported in patent publication US7713937B2, “Synthetic peptide amides and dimeric forms thereof” (Cara Therapeutics, Inc., priority 2006, dated 2010).
“And” between values parts separate entries of the source, which are not always exact repeats. Equal values may be shown once.

Columns and labels:
[1] = test system: albino New Zealand strain rabbits; assay: Capsaicin-induced ocular pain, palpebral opening; type: in vivo, rabbit; settings: Table VI, 10 mg/ml instilled, 10-30 min. post capsaicin, five animals
[2] = molecular target: T1, human kappa opioid receptor (hKOR) (Homo sapiens, UniProt P41145); assay: cell-based; settings: for Emax: HEK293, read-out: hKOR Efficacy(%)
T1 construct: expressed in transfected cells; host or cells: HEK-293 cells, transient transfection with Fugene6
T1 sequence (P41145 whole entry): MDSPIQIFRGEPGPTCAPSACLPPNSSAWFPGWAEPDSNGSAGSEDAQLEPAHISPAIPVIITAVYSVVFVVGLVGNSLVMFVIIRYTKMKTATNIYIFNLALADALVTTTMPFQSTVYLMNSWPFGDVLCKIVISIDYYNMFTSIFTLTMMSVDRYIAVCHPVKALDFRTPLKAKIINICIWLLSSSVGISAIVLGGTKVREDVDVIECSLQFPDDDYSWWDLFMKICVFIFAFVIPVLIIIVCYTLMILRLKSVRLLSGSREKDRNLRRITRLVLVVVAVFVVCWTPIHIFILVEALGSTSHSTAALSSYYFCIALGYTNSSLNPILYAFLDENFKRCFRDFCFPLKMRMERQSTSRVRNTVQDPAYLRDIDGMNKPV

[3] = molecular target: T2, mouse kappa opioid receptor (mKOR) (Mus musculus, UniProt P33534); assay: cell-based; settings: for Emax: read-out: mKOR Efficacy(%)
T2 construct: Stimulation of Endogenous Mouse Kappa-Opioid Receptor in R1.G1 Cells; host or cells: R1.G1 mouse thymoma cells
T2 sequence (P33534 whole entry): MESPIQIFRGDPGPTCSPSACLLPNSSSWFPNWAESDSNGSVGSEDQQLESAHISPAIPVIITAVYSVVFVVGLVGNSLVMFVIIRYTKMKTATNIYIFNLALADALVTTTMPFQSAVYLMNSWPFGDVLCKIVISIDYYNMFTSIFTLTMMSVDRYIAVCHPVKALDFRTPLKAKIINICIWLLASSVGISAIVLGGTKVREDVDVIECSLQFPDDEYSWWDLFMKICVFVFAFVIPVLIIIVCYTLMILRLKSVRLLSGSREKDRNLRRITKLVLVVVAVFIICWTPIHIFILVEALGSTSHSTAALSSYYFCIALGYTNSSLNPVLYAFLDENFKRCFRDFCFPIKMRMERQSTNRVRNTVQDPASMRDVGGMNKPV

[4] = Pharmacokinetics in cynomolgus monkeys, plasma half life; settings: male, cynomolgus monkey, iv
CYP2C19 = CYP2C19 (Homo sapiens, UniProt P33261); assay: Cytochrome P450 CYP2C19 inhibition in human liver microsomes; settings: percent remaining CYP activity, 10 μM test compound, (54) in Expt 1 and Expt 2
Chain of CYP2C19 (P33261 whole entry): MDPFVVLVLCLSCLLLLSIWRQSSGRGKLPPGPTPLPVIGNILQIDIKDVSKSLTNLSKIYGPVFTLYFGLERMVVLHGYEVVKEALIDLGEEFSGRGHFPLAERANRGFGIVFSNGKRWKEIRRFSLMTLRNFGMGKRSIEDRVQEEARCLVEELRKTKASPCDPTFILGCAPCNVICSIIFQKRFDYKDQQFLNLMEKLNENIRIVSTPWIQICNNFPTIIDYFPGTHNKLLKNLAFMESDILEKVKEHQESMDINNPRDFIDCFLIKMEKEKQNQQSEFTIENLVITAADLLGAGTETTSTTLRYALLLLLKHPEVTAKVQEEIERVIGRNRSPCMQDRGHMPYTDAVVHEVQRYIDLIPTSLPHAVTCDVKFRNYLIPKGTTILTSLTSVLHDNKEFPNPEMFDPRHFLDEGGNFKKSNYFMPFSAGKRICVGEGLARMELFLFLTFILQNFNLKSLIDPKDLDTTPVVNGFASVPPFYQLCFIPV

CYP2D6 = CYP2D6 (Homo sapiens, UniProt P10635); assay: Cytochrome P450 CYP2D6 inhibition in human liver microsomes; settings: percent remaining CYP activity, 10 μM test compound, (54) in Expt 1 and Expt 2
Chain of CYP2D6 (P10635 whole entry): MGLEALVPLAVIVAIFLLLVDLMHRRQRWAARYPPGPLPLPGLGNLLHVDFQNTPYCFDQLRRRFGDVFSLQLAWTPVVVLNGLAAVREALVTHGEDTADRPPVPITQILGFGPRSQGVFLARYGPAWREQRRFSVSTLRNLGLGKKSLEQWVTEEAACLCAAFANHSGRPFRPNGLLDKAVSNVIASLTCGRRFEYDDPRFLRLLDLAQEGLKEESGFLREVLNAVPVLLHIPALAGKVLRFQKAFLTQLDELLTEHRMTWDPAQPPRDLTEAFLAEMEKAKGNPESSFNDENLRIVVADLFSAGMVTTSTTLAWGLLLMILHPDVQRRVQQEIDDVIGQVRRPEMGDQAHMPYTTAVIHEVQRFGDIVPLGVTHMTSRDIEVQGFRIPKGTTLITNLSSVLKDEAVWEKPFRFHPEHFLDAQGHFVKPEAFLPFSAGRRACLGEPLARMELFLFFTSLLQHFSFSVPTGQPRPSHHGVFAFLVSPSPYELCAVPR

[5] = Inhibition of locomotion in mice (locomotion reduction assay, sedation); settings: mouse, in vivo, sc, subcutaneous, sedative effect
Protocol: To determine the potential sedative effect of test compounds, the extent of locomotion after the administration of the test compound or vehicle control can be determined and compared with a specialized apparatus designed for this purpose (Opto-Varimex Activity Meter). At the start of each experiment, each mouse was weighed and examined to determine good health. […] The subcutaneous injection was performed in the back of the neck of the mouse, pinched in a “tent” to allow proper access for the syringe needle. After injection, each animal was placed individually in Plexiglas boxes (43 cm×43 cm) inside the Opto-Varimex Activity Meter apparatus. Before the animal was placed in the apparatus, a thin layer of SANI-CHIPS rodent bedding was placed on the bottom of the Plexiglas box to provide a comfortable environment. Each Opto-Varimex Activity Meter apparatus was then turned on and data acquisition begun by the ATM3 Auto-Track System. The data were processed and results expressed in the same way as described for the writhing assay data above.

CYP1A = assay: Cytochrome P450 CYP1A inhibition in human liver microsomes; type: in vitro ADME; settings: percent remaining CYP activity, 10 μM test compound, (54) in Expt 1 and Expt 2
Protocol: Inhibition of cytochrome P450 oxidase isozymes CYP1A, CYP2C9, CYP2C19, CYP2D6 and CYP3A4 by synthetic peptide amide compounds of the invention was determined according to the following methods performed by Cerep (Seattle, Wash.):
In the cytochrome P450 CYP1A assay, human liver microsomes (0.2 mg/ml protein) were incubated for 15 minutes at 37° C. with 10 μM test compound, 1 μM ethoxyresorufin, 1.3 mM NADP, 3.3 mM glucose-6-phosphate and 0.4 U/ml glucose-6-phosphate dehydrogenase. In the absence of test compound, the ethoxyresorufin added as substrate is oxidized to resorufin, and in the presence of an inhibitor of the CYP isozyme, the amount of resorufin produced is reduced. Furafylline was used as a reference inhibitor.
In each assay, the percent inhibition of the cytochrome P450 CYP P450 isozyme was determined as one hundred times the ratio of (1-minus the amount of product in the sample in the presence of the test compound) divided by the amount of product in the sample containing untreated isozyme.

ICR mice = assay: Acetic acid-induced writhing assay in mice; type: in vivo, mouse; settings: subcutaneous, ICR mice
CYP3A4 = CYP3A4 (Homo sapiens, UniProt P08684); assay: Cytochrome P450 CYP3A4 inhibition in human liver microsomes (midazolam); settings: percent remaining CYP activity, 10 μM test compound, (54) in Expt 1 and Expt 2
Chain of CYP3A4 (P08684 whole entry): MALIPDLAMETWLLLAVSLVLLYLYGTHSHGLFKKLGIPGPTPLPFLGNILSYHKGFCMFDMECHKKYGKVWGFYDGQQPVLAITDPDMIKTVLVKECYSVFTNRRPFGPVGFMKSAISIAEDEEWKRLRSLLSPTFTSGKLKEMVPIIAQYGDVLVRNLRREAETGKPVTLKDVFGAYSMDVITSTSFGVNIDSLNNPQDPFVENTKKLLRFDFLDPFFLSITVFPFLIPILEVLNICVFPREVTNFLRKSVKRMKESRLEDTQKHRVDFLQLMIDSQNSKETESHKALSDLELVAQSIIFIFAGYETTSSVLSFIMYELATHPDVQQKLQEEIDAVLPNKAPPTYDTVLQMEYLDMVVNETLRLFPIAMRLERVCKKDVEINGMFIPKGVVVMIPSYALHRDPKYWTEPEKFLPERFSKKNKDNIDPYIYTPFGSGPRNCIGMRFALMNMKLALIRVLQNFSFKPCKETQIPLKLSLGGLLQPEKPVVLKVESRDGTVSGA

CYP2C9 = CYP2C9 (Homo sapiens, UniProt P11712); assay: Cytochrome P450 CYP2C9 inhibition in human liver microsomes; settings: percent remaining CYP activity, 10 μM test compound, (54) in Expt 1 and Expt 2
Chain of CYP2C9 (P11712 whole entry): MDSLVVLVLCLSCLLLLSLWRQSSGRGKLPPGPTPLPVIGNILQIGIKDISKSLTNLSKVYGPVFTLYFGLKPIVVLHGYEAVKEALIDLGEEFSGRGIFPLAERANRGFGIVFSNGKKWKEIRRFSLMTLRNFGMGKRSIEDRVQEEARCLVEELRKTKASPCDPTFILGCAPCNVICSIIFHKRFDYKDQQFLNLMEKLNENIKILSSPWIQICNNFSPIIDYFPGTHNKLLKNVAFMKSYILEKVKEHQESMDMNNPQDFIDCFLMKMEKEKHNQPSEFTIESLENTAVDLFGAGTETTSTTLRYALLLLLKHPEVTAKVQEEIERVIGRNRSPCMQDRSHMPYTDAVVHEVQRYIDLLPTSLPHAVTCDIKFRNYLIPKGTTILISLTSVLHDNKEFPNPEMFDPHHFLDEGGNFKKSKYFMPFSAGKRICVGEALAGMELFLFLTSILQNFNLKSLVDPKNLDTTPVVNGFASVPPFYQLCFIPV

[6] = Caco-2 (TC7 subclone) membrane permeability, apical-to-basolateral; settings: human

SMILES | Mean (% Control) palpebral opening [1] [% Control] | EC50 [2] [pM] | Emax [2] [%] | EC50 [3] [pM] | Emax [3] [%] | half-life [4] [h] | Percent Activity of Cytochrome P450 CYP2C19 (CYP2C19) | Percent Activity of Cytochrome P450 CYP2D6 (CYP2D6) | ED50 [5] [mg/kg] | Percent Activity of Cytochrome P450 CYP1A (CYP1A) | ED50 in the acetic acid-induced writhing assay (ICR mice) [mg/kg] | Percent Activity of Cytochrome P450 CYP3A4 (CYP3A4) | Percent Activity of Cytochrome P450 CYP2C9 (CYP2C9) | Papp A→B at 60 min, 10 μM [6] [×10⁻⁶ cm/s]
CC(C)C[C@@H](NC(=O)[C@@H](Cc1ccccc1)NC(=O)[C@H](N)Cc1ccccc1)C(=O)N[C@H](CCCCN)C(=O)N1CCC(N2CCC[C@H]2C(=O)O)CC1 [Compound (4), D-Phe-D-Phe-D-Leu-D-Lys-[N-(4-piperidinyl)-L-proline]-OH] | 56.7 | 150 | 92 | 75 | 94 | – | – | – | – | – | – | – | – | –
C/N=C(/N)N1CCCN(C(=O)[C@@H](CCCN)NC(=O)[C@@H](CC(C)C)NC(=O)[C@@H](Cc2ccccc2)NC(=O)[C@H](N)Cc2ccccc2)CC1 [Compound (52), D-Phe-D-Phe-D-Leu-D-Orn-[4-(N-methyl)amidino-homopiperazine amide]] | – | 180 | 96 | 35 | 101 | 1.15 | – | – | – | – | – | – | – | –
CC(C)C[C@@H](NC(=O)[C@@H](Cc1ccccc1)NC(=O)[C@H](N)Cc1ccccc1)C(=O)N[C@H](CCCN)C(=O)N1CCCN(C2=NCCN2)CC1 [Compound (54), D-Phe-D-Phe-D-Leu-D-Orn-[4-(4,5-dihydro-1H-imidazol-2-yl)homopiperazine amide]] | – | 130 | 90 | 56 | 99 | – | 94.1% and 97.8% | 98.4% and 98.2% | 3.17 | 97.1% and 95.8% | 0.074 | 94.7% and 95.9% | 99.2% and 98.2% | –
CNC(=C[N+](=O)[O-])NCCSCc1ccc(CN(C)C)o1 [Ranitidine, ranitidine] | – | – | – | – | – | – | – | – | – | – | – | – | – | 0.5
